# Source: US11390631B1, “Benzodiazepine derivatives as RSV inhibitors” (priority 2015, dated 2022)
# System: Human RSV-A (“Long” strain)
# Assay: RSV-A assay: inhibition of cytopathic effect in Hep-2 cells, ATPlite readout
# Format: cell-based, Human respiratory syncytial virus (HRSV)
# Conditions: Hep-2 cells, MOI 0.1, 5-day incubation, ATPlite; read-out: Human RSV-A (“Long” strain) EC50
# Source text: Hep-2 cells, (originally derived from tumors grown in irradiated-cortisonised weanling rats that had been injected with epidermoid carcinoma tissue from a person's larynx, but later found to be indistinguishable from HeLa cells by PCR DNA analysis), were used for the culturing of genotype A, “Long” strain RSV. Flasks were inoculated with RSV and viral stocks were collected once cytopathic effect (CPE) was greater than 90%. Viral stocks in 25% sucrose media were snap frozen using liquid nitrogen to increase viral stability. Viral stock titers were quantified by tissue culture infectious dose 50% (TCID50) using 8,000 cells per well and 3-fold viral dilutions across a 96-well plate, cultured for 4 days. Viral stock titers were also quantified by a plaque forming unit assay, as described elsewhere.
# Following extensive parameter testing, the final assay is run as follows: Hep-2 cells are seeded into the inner 60 wells of a 96-well plate at 8,000 cells per well in a volume of 50 μL using Growth Media (DMEM without phenol red, 1% L-Glut, 1% Penn/Strep, 1% nonessential amino acids, 10% heat-inactivated FBS). 2-fold serial dilutions of control and test compounds are added to the wells in duplicate in a total volume of 25 μL. Viral stock is then added to the wells at a multiplicity of infection (MOI) of 0.1 in a volume of 25 μL, bringing the total volume of each well to 100 μL. The MOI is calculated using the PFU/mL, or TCID50 if unavailable. Each 96-well plate has a control column of 6 wells with cells and virus but no compound (negative control, max CPE), a column with cells but no compound or virus (positive control, minimum CPE), and a column with no cells or virus or compound (background plate/reagent control). The control wells with cells but no virus are given an additional 25 uL of growth media containing an equal quantity of sucrose as those wells receiving the viral stock in order to keep consistent in media and volume conditions. The outer wells of the plate are filled with 125 μL of moat media (DMEM, 1% Penn/Strep) to act as a thermal and evaporative moat around the test wells. Following a 5-day incubation period, the plates are read using ATPlite (50 uL added per well), which quantifies the amount of ATP (a measure of cell health) present in each well. Assay plates are read using the Envision luminometer. In parallel, cytotoxicity is examined on an additional 96-well plate treated in an identical manner, but substituting the 25 μL of viral stock for 25 μL of growth media. […] EC50 ranges are as follows: A<0.4 μM; B 0.4-0.8 μM; C>0.8 μM and CC50 ranges are as follows: A>50 μM; B 10-50 μM; C<10 μM.
row,Structure (SMILES),EC50 [nM]
1,O=C1Nc2ccccc2C(c2ccccc2)=N[C@@H]1Nc1nnc(-c2ncc(C(F)(F)F)cc2N[C@H]2CC[C@H]2O)o1 [Example 417],> 800
2,"O=C1Nc2ccccc2C(c2ccccc2)=N[C@H]1Nc1nnc(-c2nc(C(F)(F)F)sc2N2CCO[C@@H]3C[C@@H]32)o1 (single isomer, unassigned) [Example 487]",> 800
3,"O=C1Nc2ccccc2C(c2ccccc2)=N[C@H]1Nc1nnc(-c2nc(C(F)(F)F)sc2N2CCO[C@H]3C[C@H]32)o1 (single isomer, unassigned) [Example 485]",> 800

# Same assay, conditions: human respiratory syncytial virus, HEp-2, 120 h, read-out: Human RSV-A (“Long” strain) EC50
row,Structure (SMILES),EC50 [nM]
1,O=C1Nc2ccccc2C(c2ccccc2)=NC1Nc1nnc(CCC(F)(F)F)o1 (stereo not drawn) [Example 192],> 800
2,COCc1nnc(NC2N=C(c3ccccc3)c3ccccc3NC2=O)o1 (stereo not drawn) [Example 191],> 800
3,COc1ccc2nccc(-c3nnc(N[C@H]4N=C(c5ccccc5)c5ccccc5NC4=O)o3)c2c1 [Example 408],> 800
4,N#Cc1cnc(-c2nnc(N[C@H]3N=C(c4ccccc4)c4ccccc4NC3=O)o2)c(N2C3CCC2COC3)c1 [Example 333],400 to 800
5,O=C1Nc2ccccc2C(c2ccccc2)=NC1Nc1nnc(-c2ccc(-n3cncn3)nc2)o1 (stereo not drawn) [Example 225],> 800
6,Cn1ncc(N2CCOCC2)c1-c1nnc(N[C@H]2N=C(c3ccccc3)c3ccccc3NC2=O)o1 [Example 178],400 to 800
7,O=C1Nc2ccccc2C(c2ccccc2)=N[C@@H]1Nc1nnc(-c2ncc(C(F)F)cc2N2CCOCC2)o1 [Example 461],< 400
8,O=C1Nc2ccccc2C(c2ccccc2)=N[C@@H]1Nc1nnc(-c2ccc(F)cc2N2CCOCC2)o1 [Example 159],< 400
9,CC1(c2nnc(NC3N=C(c4ccccc4)c4ccccc4NC3=O)o2)CC1 (stereo not drawn) [Example 195],> 800
10,O=C1Nc2ccccc2C(c2ccccc2)=N[C@@H]1Nc1nnc(-c2nc(C(F)(F)F)sc2N[C@@H]2CCOC2)o1 [Example 474],< 400
11,COc1ccccc1-c1nc(-c2nnc(N[C@H]3N=C(c4ccccc4)c4ccccc4NC3=O)o2)c(N2CCOCC2)s1 [Example 342],< 400
12,O=C1Nc2c(F)cccc2C(c2ccccc2)=NC1Nc1nnc(-c2ccc(N3CCOCC3)cc2)o1 (stereo not drawn) [Example 356],400 to 800
13,Cc1cc(-c2nnc(N[C@H]3N=C(c4ccccc4)c4ccccc4NC3=O)o2)c(N2CCOCC2)s1 [Example 330],< 400
14,CC(C)(c1nc(-c2nnc(N[C@H]3N=C(c4ccccc4)c4ccccc4NC3=O)o2)c(N2CCOCC2)s1)N1CCOCC1 [Example 459],< 400
15,COc1ccc(-c2nnc(NC3N=C(c4ccccc4)c4ccccc4NC3=O)o2)nc1Cl (stereo not drawn) [Example 109],> 800
16,O=C1Nc2ccccc2C(c2ccccc2)=N[C@@H]1Nc1nnc(-c2nc(-c3ccc(C(F)(F)F)nc3)sc2N2CCOCC2)o1 [Example 390],< 400
17,COc1ccc(-c2nnc(N[C@H]3N=C(c4ccccc4)c4ccccc4NC3=O)o2)c(N2CCOCC2)n1 [Example 295],< 400
18,O=C1Nc2ccccc2C(c2ccccc2)=N[C@@H]1Nc1nnc(-c2cn(C3CCC3)nc2N2CCOCC2)o1 [Example 430],< 400
19,COCCn1ccc2cccc(-c3nnc(N[C@H]4N=C(c5ccccc5)c5ccccc5NC4=O)o3)c21 [Example 426],> 800

row,Structure (SMILES),EC50 [nM]
1,COCCN1CCCn2ncc(-c3nnc(N[C@H]4N=C(c5ccccc5)c5ccccc5NC4=O)o3)c21 [Example 438],400 to 800
2,O=C1Nc2ccccc2C(c2ccccc2)=N[C@H]1Nc1nnc(-c2ccccc2N2CCOCC2)o1 [Example 125b],> 800
3,O=C1Nc2ccccc2C(c2ccccc2)=N[C@@H]1Nc1nnc(-c2ncsc2C2=CCOCC2)o1 [Example 347],< 400
4,CN(CC(C)(C)O)c1cc(C(F)(F)F)cnc1-c1nnc(N[C@H]2N=C(c3ccccc3)c3ccccc3NC2=O)o1 [Example 308],> 800
5,N#Cc1ccn2ncc(-c3nnc(N[C@H]4N=C(c5ccccc5)c5ccccc5NC4=O)o3)c2c1 [Example 441],> 800
6,COCCCc1sc(C)nc1-c1nnc(N[C@H]2N=C(c3ccccc3)c3ccccc3NC2=O)o1 [Example 479],> 800
7,CNc1cc(C(F)(F)F)cnc1-c1nnc(N[C@H]2N=C(c3ccccc3)c3ccccc3NC2=O)o1 [Example 307],> 800
8,O=C1Nc2ccccc2C(c2ccccc2)=NC1Nc1ccc(-c2ccccc2N2CCOCC2)nn1 (stereo not drawn) [Example 378],> 800
9,O=C1Nc2ccccc2C(c2ccccc2)=NC1Nc1nnc(-c2ccc(-n3ccnc3)nc2)o1 (stereo not drawn) [Example 232],> 800
10,N#Cc1ccc(-c2nnc(NC3N=C(c4ccccc4)c4ccccc4NC3=O)[nH]2)cc1 (stereo not drawn) [Example 365],400 to 800
11,O=C1Nc2ccccc2C(c2ccccc2)=NC1Nc1nnc(C2CCOC2)o1 (stereo not drawn) [Example 215],> 800
12,O=C1Nc2ccccc2C(c2ccccc2)=NC1Nc1nnc(CC(F)(F)F)o1 (stereo not drawn) [Example 203],> 800
13,COCC(C)(C)Nc1cc(C(F)(F)F)cnc1-c1nnc(N[C@H]2N=C(c3ccccc3)c3ccccc3NC2=O)o1 [Example 414],> 800
14,O=C1Nc2ccccc2C(c2ccccc2)=NC1Nc1nnc(C2CCC2)o1 (stereo not drawn) [Example 196],> 800
15,O=C1Nc2ccccc2C(c2ccccc2)=NC1Nc1nnc(-c2ccncc2N2CCCCC2)o1 (stereo not drawn) [Example 141],> 800
16,C[C@@H]1CN(c2cc(C#N)cnc2-c2nnc(N[C@H]3N=C(c4ccccc4)c4ccccc4NC3=O)o2)CCO1 [Example 326],400 to 800
17,N#CCCc1nnc(NC2N=C(c3ccccc3)c3ccccc3NC2=O)o1 (stereo not drawn) [Example 193],> 800
18,N#Cc1ccc(-c2nnc(N[C@H]3N=C(c4ccccc4)c4ccccc4NC3=O)o2)c(N2C3CCC2COC3)c1 [Example 289],< 400
19,CC(C)(Cc1ccccc1)c1nnc(NC2N=C(c3ccccc3)c3ccccc3NC2=O)o1 (stereo not drawn) [Example 208],> 800

row,Structure (SMILES),EC50 [nM]
1,O=C1Nc2ccccc2C(c2ccccc2)=N[C@@H]1Nc1nnc(-c2ccc(C(F)(F)F)cc2N2CCOCC2)o1 [Example 152],< 400
2,COc1ccc(CN2C(=O)C(C)(N)N=C(c3ccccc3)c3ccccc32)cc1 (stereo not drawn) [Example 102],> 800
3,O=C1Nc2ccccc2C(c2ccc(F)cc2)=NC1Nc1nnc(-c2ccc(F)cc2)o1 (stereo not drawn) [Example 382],> 800
4,COc1ccc(-c2ccc(NC3N=C(c4ccccc4)c4ccccc4NC3=O)nn2)cc1 (stereo not drawn) [Example 376],> 800
5,O=C1Nc2ccccc2C(c2ccccc2)=NC1Nc1nnc(-c2ccc(NC3CCCCC3)cc2)o1 (stereo not drawn) [Example 116],> 800
6,N#Cc1c[nH]c2cc(-c3nnc(N[C@H]4N=C(c5ccccc5)c5ccccc5NC4=O)o3)ccc12 [Example 291],> 800
7,CCOC(=O)c1nnc(NC2N=C(c3ccccc3)c3ccccc3NC2=O)o1 (stereo not drawn) [Example 78],> 800
8,N#Cc1ccc(-c2nnc(N[C@H]3N=C(c4ccccc4)c4ccccc4NC3=O)o2)c(N2CC3CCC(C2)O3)c1 [Example 281],< 400
9,CN1CCN(c2ccc(-c3nnc(NC4N=C(c5ccccc5)c5ccccc5NC4=O)o3)cc2)CC1 (stereo not drawn) [Example 210],> 800
10,O=C1Nc2ccccc2C(c2ccccc2)=NC1Nc1nnc([C@H]2CCCO2)o1 (stereo partly drawn) [Example 198],> 800
11,O=C1Nc2ccccc2C(c2ccccc2)=NC1Nc1noc(-c2ccccc2)n1 (stereo not drawn) [Example 91],> 800
12,O=C1Nc2ccccc2C(c2ccccc2)=N[C@@H]1Nc1nnc(-c2cnc(-n3cccn3)nc2N2CCOCC2)o1 [Example 172],> 800
13,O=C1Nc2ccccc2C(c2ccccc2)=NC1Nc1nnc(-c2ccncc2N2CCOCC2)o1 (stereo not drawn) [Example 142],400 to 800
14,C#Cc1cnc(-c2nnc(N[C@H]3N=C(c4ccccc4)c4ccccc4NC3=O)o2)c(N2CCOCC2)c1 [Example 311],< 400
15,O=C1Nc2ccccc2C(c2ccccc2)=N[C@@H]1Nc1nnc(-c2ncc(C(F)(F)F)cc2NC[C@H]2CCCO2)o1 [Example 420],< 400
16,O=C1Nc2ccccc2C(c2ccccc2)=N[C@@H]1Nc1nnc(-c2oc3cc(F)ccc3c2N2CCOCC2)o1 [Example 476],400 to 800
17,O=C1Nc2ccccc2C(c2ccccc2)=N[C@@H]1Nc1nnc(-c2nc(C3(C(F)(F)F)CCC3)sc2N2CCOCC2)o1 [Example 490],< 400
18,Cn1cc(N2CCOCC2)c(-c2nnc(N[C@H]3N=C(c4ccccc4)c4ccccc4NC3=O)o2)n1 [Example 164],< 400
19,O=C1Nc2ccccc2C(c2ccccc2)=N[C@@H]1Nc1nnc(-c2oc3cccc(F)c3c2N2CCOCC2)o1 [Example 477],< 400
